Measured values: article PMC5538626, “Structural and functional analysis of the GABARAP interaction motif (GIM)” (EMBO Reports, 2017)
Ends that are not written are not given here.

What was measured:
GABARAP = molecular target: T1, GABARAP (Homo sapiens, UniProt O95166); experiment: ITC titration of PLEKHM1-LIR peptides into GABARAP; assay type: binding; conditions: ITC; for ΔH: VP-ITC, one-site model, 0.4 mM peptide into 0.020 mM protein, 50 mM Na2HPO4, 100 mM NaCl; for K D of GABARAP lower compared to LC3B / specificity GABARAP over LC3B: GABARAP vs LC3B
T1 construct: modified Ub-leader (ubiquitin fusion leader) (N); made in house; host or cells: E. coli NEB T7 Express
Experimental: The genes for the truncated LC3A^2–121, LC3C^8–125, GABARAP^2–117 and GABARAP‐L1^2–117 proteins were cloned into pET30ΔSE vector between the BamHI and XhoI sites using previously established protocols 38. The chimeric constructs of the PLEKHM1‐LIR attached to the LC3A, GABARAP and GABARAP‐L1 proteins were prepared by inserting the oligonucleotide sequence corresponding to the PLEKHM1‐LIR peptide (P^629[…]^638) and glycine–serine linker into the BamHI site of the pET30ΔSE vector, placing the PLEKHM1‐LIR at the N‐terminal of the mature chimeric protein (similar to 31, 38). For the expression of human LC3 and GABARAP proteins for ITC and NMR experiments, plasmids with appropriate modified Ub‐leaders in pET vectors were used 39. Gene, encoding PLEKHM1‐LIR peptide, was ordered as synthetic oligonucleotides (Eurofins Genomics GmbH) and cloned into the pET39_Ub63_ vector 39 by NcoI–BamHI restriction sites. After TEV cleavage, the resulting peptide has the amino acid sequence GAMG‐P^629[…]^642, where the first four residues (GAMG) are the cloning artefact.
The chimeric constructs were expressed as a His‐tag fusion protein in E. coli BL21(DE3) cells. The cells were induced with 0.3 mM IPTG at OD600 0.6 for 16 h at 26°C. The cell pellets were lysed using mechanical sonication in lysis buffer (20 mM Tris–HCl pH 9.0, 100 mM NaCl, 10 mM imidazole, supplemented with 0.1% Triton X‐100). The proteins were purified using Ni‐NTA beads (GE Healthcare) and the His‐tag was cleaved using thrombin (Invitrogen) at room temperature for 16 h. The last step was gel filtration chromatography using a Superdex S200/300 GL column (GE Healthcare). The proteins were concentrated using spin concentrators (Vivaspin). For ITC and NMR studies, the non‐labelled and stable isotopes labelled LC3 and GABARAP proteins were obtained based on the protocols described elsewhere 30, 39. Here, E. coli NEB T7 Express culture transformed with corresponding plasmids were grown till OD600 nm = 1.0 and protein expression was induced with 0.2 mM IPTG. The cultures were incubated at 25°C for 8–12 h before cell harvesting. Isolation and purification procedures were similar to those reported in Ref. 22, 40. Before experiments, all proteins and peptides were equilibrated with a buffer containing 50 mM Na2HPO4, 100 mM NaCl at pH 7.0, and supplied with 5 mM protease inhibitor cocktail.
The protocol for preparation of non‐labelled and ^13C,^15N‐labelled PLEKHM1‐LIR peptide was slightly modified to achieve highest yield of the peptide. The 50 ml M9 culture was inoculated with NEB T7 cell transformed with pET39_Ub63‐PLEKHM1‐LIR plasmid and grown overnight at 37°. The collected cells were resuspended in 2 l of either LB or M9 media contained 1.5 g ^15N‐labelled NH4Cl and 3.0 g of ^13C‐labelled glucose. The cultures were grown at 37° till A(600 nm) = 0.9 and supplied with 1 mM of IPTG to induce Ub63‐PLEKHM1‐LIR overexpression (3 h at 37°). After that cells were harvested by centrifugation, re‐suspended in buffer contained 50 mM Tris–HCl pH = 7.9, 200 mM NaCl, 5% glycerol, 0.1 mg/ml DNase A and 4 mM protease inhibitor cocktail. After cell lysis by French press, debris was removed by centrifugation and clear supernatant was applied onto the column contained Ni‐NTA Sepharose equilibrated with the loading buffer (50 mM Tris–HCl pH = 7.9, 250 mM NaCl, 1% glycerol and 20 mM imidazole). Elution was performed with 400 mM imidazole in the same buffer. An aliquot of pure Ub63‐PLEKHM1‐LIR fractions was further purified by gel filtration on Superdex75 26 × 60 column for control ITC and analytical size exclusion chromatography experiments, remaining fusion protein was processed with the TEV‐protease and PLEKHM1‐LIR peptide was purified to 95% purity by reverse Ni‐NTA chromatography and followed gel filtration on Superdex75 26 × 60 column. Peak maximum of peptide was detected at […] (void volume 115 ml). Pure peptide was concentrated in Amicon concentrators with cut‐off of 3 kDa (> 95% retention). […]

[1] = test system: endogenous PLEKHM1:GABARAP complex; experiment: Peptide competition in immunoprecipitation of endogenous PLEKHM1; conditions: Plekhm1 +/+ MEF lysate, 50 μM peptide, cells treated 4 h KU-0063794 (10 μM) + chloroquine (20 μM); Fig 2D
GABARAP proteins = experiment: ITC, GABARAP proteins (range); assay type: binding, human
Experimental: All titration experiments were performed at 25°C using a VP‐ITC microcalorimeter (Malvern Instruments Ltd, UK). The ITC data were analysed with the ITC‐Origin 7.0 software with a “one‐site” binding model. The peptides at concentrations of 0.4 mM were titrated into 0.020 mM LC3 and GABARAP proteins in 26 steps. The protein and peptide concentrations were calculated from the UV absorption at 280 nm by NanoDrop spectrophotometer (Thermo Fisher Scientific, DE, USA).

[2] = 25°C, pH 7.0, listed as PLEKHM1-LIR

T1 sequence (O95166 whole entry, the tested form may be a part): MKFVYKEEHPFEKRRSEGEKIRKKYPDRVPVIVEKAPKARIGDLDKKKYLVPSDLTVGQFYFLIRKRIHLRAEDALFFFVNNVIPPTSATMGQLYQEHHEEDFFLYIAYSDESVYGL

In the case of GAMGPQQEDEWVNVQYPD [PLEKHM1‐LIR WT], the ΔH (GABARAP; 25°C, pH 7.0) is reported as -10.6 ± 0.1 kcal/mol, the ΔH (GABARAP; [2]) is reported as -10.60 ± 0.1 kcal/mol and the KA (GABARAP; 25°C, pH 7.0) is reported as 1.8 ± 0.1 ×10^6 M^−1. The “N (number of binding sites)” value (GABARAP; 25°C, pH 7.0) was 1.00 ± 0.01, the ΔG (GABARAP; 25°C, pH 7.0) was -8.54 kcal/mol and the ΔS (GABARAP; 25°C, pH 7.0) was −6.92 cal mol^−1 K^−1. The “−T × ΔS” value (GABARAP; 25°C, pH 7.0) was “+2.06 kcal mol^−1”, the KA (GABARAP; [2]) was 1.8±0.1 ×10^6 M^−1 and the ΔG (GABARAP; [2]) was -8.54 kcal/mol. The ΔS (GABARAP; [2]) was -6.92 cal mol^−1 K^−1, the “K D of GABARAP lower compared to LC3A (times)” value (GABARAP; GABARAP vs LC3A) was “approximately eight” and the “K D of GABARAP lower compared to LC3B / specificity GABARAP over LC3B” value (GABARAP) was 11 fold. The “K D of GABARAP lower compared to LC3B / specificity GABARAP over LC3B” value (GABARAP; listed as PLEKHM1‐LIR peptide) was “approximately 11 fold”, the “effect on endogenous PLEKHM1:GABARAP interaction” value [1] was “blocked the interaction” and the Kd (GABARAP proteins) was 550 to 770 nM.
